Read-outs that look alike come from different tables or passages of the source.
Assays:
M. tuberculosis H37Rv = assay: microbe, parasite or virus in culture; type: cell-based, Mycobacterium tuberculosis
M. abscessus = assay: microbe, parasite or virus in culture; type: cell-based, Mycobacterium abscessus; conditions: Mycobacteroides abscessus
M. arupense = assay: microbe, parasite or virus in culture; type: cell-based, Mycobacterium arupense; conditions: Mycolicibacter arupensis
M. avium = assay: microbe, parasite or virus in culture; type: cell-based; conditions: Mycobacterium avium
M. bolletii = assay: microbe, parasite or virus in culture; type: cell-based, Mycobacterium bolletii; conditions: Mycobacteroides abscessus
M. chitae = assay: microbe, parasite or virus in culture; type: cell-based, Mycobacterium chitae; conditions: Mycolicibacterium chitae
M. colombiense = assay: microbe, parasite or virus in culture; type: cell-based; conditions: Mycobacterium colombiense
M. goodie = assay: microbe, parasite or virus in culture; type: cell-based; conditions: Mycobacterium
M. gordonae = assay: microbe, parasite or virus in culture; type: cell-based; conditions: Mycobacterium gordonae
M. intracellulare = assay: microbe, parasite or virus in culture; type: cell-based; conditions: Mycobacterium intracellulare
M. neoaurum = assay: microbe, parasite or virus in culture; type: cell-based, Mycobacterium neoaurum; conditions: Mycolicibacterium neoaurum
M. phlei = assay: microbe, parasite or virus in culture; type: cell-based, Mycobacterium phlei; conditions: Mycolicibacterium phlei
M. phocaicum = assay: microbe, parasite or virus in culture; type: cell-based, Mycobacterium phocaicum; conditions: Mycolicibacterium phocaicum
M. szulgai = assay: microbe, parasite or virus in culture; type: cell-based; conditions: Mycobacterium szulgai
Acinetobacter baumannii = assay: Broth dilution MIC (CLSI); type: cell-based; conditions: read-out: MIC
Description: (§1) Bacteria (Acinetobacter baumannii NCCP 14782, Citrobacter freundii NCCP 14766, Enterobacter aerogenes NCCP 14761, Escherichia coli NCCP 14762, Escherichia coli O157 NCCP 14541, Klebsiella pneumoniae NCCP 14764, Proteus mirabilis NCCP 14763, Proteus vulgaris NCCP 14765, Pseudomonas aeruginosa NCCP 14781, Salmonella Enteritidis NCCP 14771, Salmonella Paratyphi A NCCP 14759, Salmonella Typhimurium NCCP 16207, Serratia marcescens NCCP 14770, Shigella boydii NCCP 14745, Shigella dysenteriae NCCP 14746, Shigella flexneri NCCP 14744, Shigella sonnei NCCP 14773, Bacillus subtilis NCCP 11101, Corynebacterium diphtheriae NCCP 10353, Staphylococcus aureus MSSA NCCP 14780, Staphylococcus aureus MRSA NCCP 14769, Staphylococcus epidermidis NCCP 14768, Streptococcus pneumoniae NCCP 14774) and fungi (Aspergillus fumigatus NCCP 22454, Candida albicans NCCP 32557, Cryptococcus neoformans NCCP 32559, Microsporum canis NCCP 22454, Rhizopus oryzae NCCP 22458, Saccharomyces cerevisiae NCCP 32558, Trichophyton rubrum NCCP 22456) strains were obtained from the National Culture Collection for Pathogens (NCCP) (Chungbuk, Korea). The MIC of each agent was determined following the Clinical and Laboratory Standards Institute (CLSI).[40]

Aspergillus fumigatus = assay: Broth dilution MIC (CLSI); type: cell-based; conditions: read-out: MIC
Description: as §1

Bacillus subtilis = assay: Broth dilution MIC (CLSI); type: cell-based; conditions: read-out: MIC
Description: as §1

Candida albicans = assay: Broth dilution MIC (CLSI); type: cell-based; conditions: read-out: MIC
Description: as §1

Citrobacter freundii = assay: Broth dilution MIC (CLSI); type: cell-based; conditions: read-out: MIC
Description: as §1

[1] = system: Corynebacterium diphtheriae; assay: Broth dilution MIC (CLSI); type: cell-based; conditions: read-out: MIC
Description: as §1

Cryptococcus neoformans = assay: Broth dilution MIC (CLSI); type: cell-based; conditions: read-out: MIC
Description: as §1

Enterobacter aerogenes = assay: Broth dilution MIC (CLSI); type: cell-based; conditions: Klebsiella aerogenes; Enterobacter aerogenes; read-out: MIC
Description: as §1

Escherichia coli O157 = assay: Broth dilution MIC (CLSI); type: cell-based; conditions: read-out: MIC
Description: as §1

Escherichia coli = assay: Broth dilution MIC (CLSI); type: cell-based; conditions: read-out: MIC
Description: as §1

Klebsiella pneumoniae = assay: Broth dilution MIC (CLSI); type: cell-based; conditions: read-out: MIC
Description: as §1

Microsporum canis = assay: Broth dilution MIC (CLSI); type: cell-based; conditions: read-out: MIC
Description: as §1

Proteus mirabilis = assay: Broth dilution MIC (CLSI); type: cell-based; conditions: read-out: MIC
Description: as §1

Proteus vulgaris = assay: Broth dilution MIC (CLSI); type: cell-based; conditions: read-out: MIC
Description: as §1

Pseudomonas aeruginosa = assay: Broth dilution MIC (CLSI); type: cell-based; conditions: read-out: MIC
Description: as §1

Rhizopus oryzae = assay: Broth dilution MIC (CLSI); type: cell-based; conditions: Rhizopus arrhizus; Rhizopus oryzae; read-out: MIC
Description: as §1

Saccharomyces cerevisiae = assay: Broth dilution MIC (CLSI); type: cell-based; conditions: read-out: MIC
Description: as §1

Salmonella Enteritidis = assay: Broth dilution MIC (CLSI); type: cell-based; conditions: Salmonella enterica; Salmonella Enteritidis; read-out: MIC
Description: as §1

Salmonella Paratyphi A = assay: Broth dilution MIC (CLSI); type: cell-based; conditions: Salmonella enterica; Salmonella Paratyphi A; read-out: MIC
Description: as §1

Salmonella Typhimurium = assay: Broth dilution MIC (CLSI); type: cell-based; conditions: Salmonella enterica; Salmonella Typhimurium; read-out: MIC
Description: as §1

Serratia marcescens = assay: Broth dilution MIC (CLSI); type: cell-based; conditions: read-out: MIC
Description: as §1

Shigella boydii = assay: Broth dilution MIC (CLSI); type: cell-based; conditions: read-out: MIC
Description: as §1

Shigella dysenteriae = assay: Broth dilution MIC (CLSI); type: cell-based; conditions: read-out: MIC
Description: as §1

Shigella flexneri = assay: Broth dilution MIC (CLSI); type: cell-based; conditions: read-out: MIC
Description: as §1

Shigella sonnei = assay: Broth dilution MIC (CLSI); type: cell-based; conditions: read-out: MIC
Description: as §1

[2] = system: Staphylococcus aureus, MRSA; assay: Broth dilution MIC (CLSI); type: cell-based; conditions: read-out: MIC
Description: as §1

[3] = system: Staphylococcus aureus, MSSA; assay: Broth dilution MIC (CLSI); type: cell-based; conditions: read-out: MIC
Description: as §1

[4] = system: Staphylococcus epidermidis; assay: Broth dilution MIC (CLSI); type: cell-based; conditions: read-out: MIC
Description: as §1

Streptococcus pneumoniae = assay: Broth dilution MIC (CLSI); type: cell-based; conditions: read-out: MIC
Description: as §1

Trichophyton rubrum = assay: Broth dilution MIC (CLSI); type: cell-based; conditions: read-out: MIC
Description: as §1

[5] = Mycobacterium tuberculosis, H37RV, read-out: MIC

COC(=O)[C@@H]1CCC(=O)N1Cc1cc2ccc(OCc3ccccc3)cc2c2cc(OC)c(OC)cc12 [PP3S, Methyl (S)-1-{[3-(Benzyloxy)-6,7-dimethoxy-9-phenanthryl]methyl}-5-oxopyrrolidine-2-carboxylate]
> 100 µg/mL: MIC (M. abscessus) | MIC (M. arupense) | MIC (M. avium) | MIC (M. bolletii) | MIC (M. chitae) | MIC (M. colombiense) | MIC (M. goodie) | MIC (M. gordonae) | MIC (M. intracellulare) | MIC (M. neoaurum) | MIC (M. phlei) | MIC (M. phocaicum) | MIC (M. szulgai) | MIC (Acinetobacter baumannii) | MIC (Aspergillus fumigatus) | MIC (Bacillus subtilis) | MIC (Candida albicans) | MIC (Citrobacter freundii) | MIC [1] | MIC (Cryptococcus neoformans) | MIC (Enterobacter aerogenes) | MIC (Escherichia coli O157) | MIC (Escherichia coli) | MIC (Klebsiella pneumoniae) | MIC (Microsporum canis) | MIC (Proteus mirabilis) | MIC (Proteus vulgaris) | MIC (Pseudomonas aeruginosa) | MIC (Rhizopus oryzae) | MIC (Saccharomyces cerevisiae) | MIC (Salmonella Enteritidis) | MIC (Salmonella Paratyphi A) | MIC (Salmonella Typhimurium) | MIC (Serratia marcescens) | MIC (Shigella boydii) | MIC (Shigella dysenteriae) | MIC (Shigella flexneri) | MIC (Shigella sonnei) | MIC [2] | MIC [3] | MIC [4] | MIC (Streptococcus pneumoniae) | MIC (Trichophyton rubrum)
1.6 µg/mL: MIC (M. tuberculosis H37Rv; [5])
had in vitro antitubercular activities: in vitro antitubercular activities (S-form vs R-form) (M. tuberculosis H37Rv)

CCCCOc1ccc2cc(CN3C(=O)CC[C@H]3C(=O)OC)c3cc(OC)c(OC)cc3c2c1 [PP2S, Methyl (S)-1-((3-butoxy-6,7-dimethoxyphenanthren-9-yl)methyl)-5-oxopyrrolidine-2-carboxylate]
0.4 µg/mL: MIC (M. tuberculosis H37Rv)
had in vitro antitubercular activities: in vitro antitubercular activities (S-form vs R-form) (M. tuberculosis H37Rv)
0.8 µg/mL: MIC (M. tuberculosis H37Rv; [5])
> 100 µg/mL: MIC (M. abscessus) | MIC (M. arupense) | MIC (M. avium) | MIC (M. bolletii) | MIC (M. chitae) | MIC (M. colombiense) | MIC (M. goodie) | MIC (M. gordonae) | MIC (M. intracellulare) | MIC (M. neoaurum) | MIC (M. phlei) | MIC (M. phocaicum) | MIC (M. szulgai) | MIC (Acinetobacter baumannii) | MIC (Aspergillus fumigatus) | MIC (Bacillus subtilis) | MIC (Candida albicans) | MIC (Citrobacter freundii) | MIC [1] | MIC (Cryptococcus neoformans) | MIC (Enterobacter aerogenes) | MIC (Escherichia coli O157) | MIC (Escherichia coli) | MIC (Klebsiella pneumoniae) | MIC (Microsporum canis) | MIC (Proteus mirabilis) | MIC (Proteus vulgaris) | MIC (Pseudomonas aeruginosa) | MIC (Rhizopus oryzae) | MIC (Saccharomyces cerevisiae) | MIC (Salmonella Enteritidis) | MIC (Salmonella Paratyphi A) | MIC (Salmonella Typhimurium) | MIC (Serratia marcescens) | MIC (Shigella boydii) | MIC (Shigella dysenteriae) | MIC (Shigella flexneri) | MIC (Shigella sonnei) | MIC [2] | MIC [3] | MIC [4] | MIC (Streptococcus pneumoniae) | MIC (Trichophyton rubrum)

— paper PMC9154192 (PLoS Biology, 2022)
